Assay results: patent US7754718B2 (priority 2004, dated 2010)

Columns and labels:
CEM cells = assay: Cell cytotoxicity assay on CEM cells; assay type: cell-based; settings: Homo sapiens, CCRF-CEM, concentration that inhibited 50% of cell growth, read-out: IC50 (μM) CEM
How it was run: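 MT-2 and CEM cytotoxicity determined per previously reported procedures. HepG2 cells seeded at 10^4 cells/ml in MEME + 10% FBS, compound added on day 2 for 3 further days at 37° C. Viable layer stained with methylene blue, solubilized in 1% sarcosyl, A595 read.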

wt (ayw) HBV = assay: HBV DNA inhibition in HepG2.2.15 cells, Southern blot hybridization; assay type: cell-based; settings: Hepatitis B virus, HepG2.2.15, 144 h, read-out: EC50 (μM) wt (ayw), HepG2.2.15 cells, 6-day treatment, HBV DNA by Southern blot
Description: (§1) Southern blot hybridization was used to measure the effects of compounds on HBV DNA. Total DNA from cells was extracted using Dneasy Tissue kit (Qiagen Inc. Valencia, Calif.) and separated on a 0.8% agarose gel. Separated DNA was transferred to a Hybond-N+membrane (Amersham Pharmacia Biotech Inc. Piscataway, N.J.). Inhibition of viral DNA replication was assessed by comparison of the replicative HBV DNA from drug-treated versus untreated cultures using hybridization of the membrane with a [α-^32P] dCTP labeled whole HBV DNA probe followed by autoradiography. Quantitative densitometry was performed on a Molecular Dynamics Densitometer (Amersham Pharmacia Biotech Inc. Piscataway, N.J.) using ImageQuaNT image analysis software. The integrated HBV genome was used as the internal control to normalize the amount of DNA loaded. Northern blot hybridization was used to measure the effects of the compounds on HBV RNA. Total intracellular RNA was extracted from cells using Rneasy kit (Qiagen Inc. Valencia, Calif.). RNA was separated in a 1.2% formaldehyde agarose gel and transferred to a Hybond-N+ membrane (Amersham Pharmacia Biotech Inc. Piscataway, N.J.). The membrane was hybridized with the same probe mentioned above at 65° C. followed by autoradiography. GAPDH RNA level was used as an internal control to normalize the amount of RNA loaded. The decrease of HBV core protein expression was assessed by western blot. A cellular crude extract of […] cells was separated on a 12% SDS-PAGE gel and transferred onto a nitrocellulose membrane (Bio-rad Laboratories, Hercules, Calif.). Anti-HBV core antibody (DAKO Corp. Carpinteria, Calif.) and anti rabbit IgG secondary antibody (Sigma. St. Louis, Mo.) were added. Actin protein level was used as the internal control.
Hep.G2.2.15 is a hepatoblastoma cell line stably transfected with a HBV genome (ayw strain) (Sells et al., 1987, Proc Natl Acad Sci USA. 84 (4):1005-1009). […]
The effect of helioxanthin and 22 on HBV DNA in HepG2.2.15 cells, which is stably transfected with the HBV genome, was assessed. […]

HepG2 cells = assay: Cell cytotoxicity assay on HepG2 cells, methylene blue staining; assay type: cell-based; settings: Homo sapiens, 72 h, concentration that inhibited 50% of cell growth, 3 days
Description: Cytotoxicities of test compounds on MT-2 (Mellors et al., 1992 Mol. Pharmacol. 41:446-451) and CEM (Grove et al., 1995, Cancer Res. 55:3008-3011) cells were determined according to the previously reported procedures. Hepg2 cells were seeded at a density of 10^4 cells/ml/well in 24-well plates and cultured in MEME supplemented with 10% FBS at 37° C. and 5% CO2. Each test compound at different concentrations was added on the second day of the culture and the cells were incubated for another 3 days. At the end of the incubation period, the medium was removed and 0.5 ml of 0.5% methylene blue in 50% ethanol (v/v) was added to each well and set at room temperature for 30-60 minutes. The methylene blue was removed; the plates were washed with water and allowed to air dry. Once dry, 1% sarcosyl was added to dissolve the stained cell layer. The absorbance at 595 nm was measured with a microplate reader (Molecular Devices Corp. Sunnyvale, Calif.). The cytotoxicity to CEM cell was calculated as described previously (Grove et al., 1995, Cancer Res. 55 (14): 3008-3011).

HBV core protein = HBV core protein expression in HepG2.2.15 cells, Western blot; assay type: cell-based, Hepatitis B virus; settings: 6 days
Description: as §1
Since 3.5 kb HBV transcript was decreased after drug treatment, it was anticipated that this class of compounds would also affect viral protein expression. HepG2.2.15 cells were treated with helioxanthin and 22 for 6 days. […]

SMILES | IC50 (CEM cells) [µM] | EC50 (wt (ayw) HBV) [µM] | IC50 (HepG2 cells) [µM] | effect on HBV core protein expression (HBV core protein; listed as helioxanthin) | effect on HBV core protein expression (HBV core protein)
O=C1OCc2c1cc1ccc3c(c1c2-c1ccc2c(c1)OCO2)OCO3 [Compound 2, 10-Benzo[1,3]dioxol-5-yl-9H-furo[3′,4′:6,7]naphtho[1,2-d][1,3]dioxol-7-one, reference compound] | 32 | ~1 | 6 | decreased in a dose-dependent manner | 
Nc1ccn([C@@H]2CS[C@H](CO)O2)c(=O)n1 [Compound 3TC, (−)-(2R,5S)-1-[2-(hydroxymethyl)oxathiolan-5-yl]cytosine] | > 100 | 0.05 ± 0.03 | > 100 |  | no effect
COc1ccc(-c2c3c(cc4ccc5c(c24)OCO5)C(=O)NC3)cc1OC [Compound 22, 10-(3,4-Dimethoxy-phenyl)-8,9-dihydro-1,3-dioxa-8-aza-dicyclopenta[a,g]naphthalen-7-one] | 3.6 ± 1.2 | ~0.08 | 2 |  | decreased in a dose-dependent manner
